Assay [1] addresses T1, GST-human KRas166 (G12V) GPPNHP (Homo sapiens, UniProt P01116, G12V).
T1 construct: made in house; host or cells: E. coli C41(DE3)
Put plainly: KRas small-molecule screening by SPR (BIACORE T200). Format: binding. To be noted: compound at final concentration of 100 uM; immobilised GST-KRAS166 (G12V) GPPNHP, GST reference channel. The protocol:
For SPR assays pGEX-KRAS(G12V) plasmid was transformed into E. coli C41(DE3). Bacterial cells were cultured at 37° C. to an OD600 of 0.6 and induced with IPTG (final 0.1 mM) at 18° C. overnight. The GST fusion proteins were extracted from bacteria pellets after cell disruption in 140 mM NaCl, 2.7 mM KCl, […], 1.8 mM KH2PO4, 1 mM EDTA, 2 mM MgCl2 pH 7.4 and purified by glutathione-sepharose column chromatography (GE Healthcare), eluting with 50 mM Tris-HCl pH8.0, 10 mM reduced glutathione, 1 mM DTT, 2 mM MgC2. The eluted proteins were dialysed against 50 mM Tris-HCl pH8.0, 1 mM DTT, 2 mM MgCl2 and concentrated to 10 mg/ml using a Biomax-30 […]-15 centrifugal filter device (Millipore). Purified KRAS protein was loaded with GPPNHP as described elsewhere (Pacold et al., 2000). Loaded protein was then purified by gel filtration on a HiLoad Superdex-75 HR column (GE Healthcare) in 1×PBS pH7.4, 5 mM MgCl2 and concentrated for storage.
To a previously immobilized CM5 chip (GE Healthcare BR-1005-30) with anti GST antibody via amine coupling method, GST in channel 1 and GST-human KRas166 (G12V) GPPNHP in channel 2 were immobilised. GST was immobilised between 2,000 and 5,000 Response units. KRAS166 (G12V) was immobilized between 10,000 to 15,000 Response Units.
In a 96 well plate, compounds were diluted in […], 5 mM MgCl2 and 5% DMSO Buffer to a final concentration of 100 uM. DCAI was used as positive control. Experiment also included a solvent correction curve for 5% DMSO. Screening and evaluation of the protein immobilization and the compounds screening was done accordingly to the BIACORE T200 control and evaluation software.
Protein immobilisation: 10,000 RU; average fragment 300 Da in size. Rmax=(MWA/MWL)×RL×SM MWA is the molecular weight of the analyte in Da MWL is the molecular weight of the ligand in Da RL is the immobilization level in RU SM is the molar stoichiometry (assume 1:1) Rmax=300/47,500×10,000×1 Rmax=63 RU. Cell Viability Assay protocols

The test system of assay [2] is H358 cells (ATCC CRL-5807). Put plainly: Cell viability assay (CellTiter-Glo), H358 cells. Format: cell-based. To be noted: Homo sapiens, NCI-H358, 48 h incubation, first value of the cell, read-out: Cell Viability (μM) H358 (concentration that decreases cell viability by 50%). The protocol: (§1) Cells (A549 ATCC CCL-185) are cultured in Dulbecco's Modified Eagle's Medium plus 10% foetal calf serum and 2 mM L-glutamine at 37° C., 5% CO2. Cells are plated onto white clear bottom 96-well plates (5000 cells/well in 200 μl media) and left to adhere overnight at 37° C., 5% CO2. Next day, test compound (1 μl at 200× concentration in 100% DMSO) is added to give final test compound concentration 1× in 0.5% DMSO. After 48 h of incubation at 37° C., 5% CO2, 20 μl CellTiter-Glo reagent (Promega G7572) is added into each well. Plates are incubated at room temperature with shaking for 30 min and then luminescence is read using a PheraStar plate reader. The concentration of compounds that decrease cell viability by 50% is calculated from dose response curves generated using Dotmatics data analysis software.
In the H358 cell assay, cells (ATCC CRL-5807) are cultured in RPM-1640 medium plus 10% foetal calf serum and 2 mM L-glutamine at 37° C., 5% CO2.

The subject of assay [3] is DLD1 cells (ATCC CCL-221). Put plainly: Cell viability assay (CellTiter-Glo), DLD1 cells. The settings on record: Homo sapiens, DLD-1 cells, 48 h incubation, second value of the cell, read-out: Cell Viability (μM) DLD-1 (concentration that decreases cell viability by 50%). Format: cell-based. The protocol: as §1
In the DLD1 cell assay, cells (ATCC CCL-221) are cultured in RPMI-1640 medium plus 10% foetal calf serum and 2 mM L-glutamine at 37° C., 5% CO2.

Experimental findings from US11724999B2, “Inhibitors of RAS-effector protein interactions” (Oxford University Innovation Limited, priority 2018, dated 2023) are described below.

As to `CN1CCC(C(=O)NC[C@@H]2COc3ccc(OCc4ccc(F)c(F)c4)cc3O2)CC1` [Example 27, 1-Methyl-piperidine-4-carboxylic acid [(R)-7-(3,4-difluoro-benzyloxy)-2,3-dihydro-benzo[1,4]dioxin-2-ylmethyl]-amide], the “SPR Response Units” value in assay [1] amounted to 44 Response Units. The IC50 in assay [2] turned out to be 33.2 µM; in assay [3] it was 5.6 µM. Turning to `O=C(Nc1ncc[nH]1)C1COc2ccc(OCc3ccccc3)cc2O1.O=CO` (centres unmarked) [Example 61, 7-Benzyloxy-2,3-dihydro-benzo[1,4]dioxine-2-carboxylic acid (1H-imidazol-2-yl)-amide; formic acid salt], the “SPR Response Units” value in assay [1] is reported as 25 Response Units. Moreover, the IC50 is > 100 µM in assay [2] and 13 µM in assay [3]. With `CN1CCN(Cc2cccc(C(=O)NC[C@@H]3COc4ccc(OCc5ccccc5)cc4O3)c2)CC1` [Example 7, N-((R)-7-Benzyloxy-2,3-dihydro-benzo[1,4]dioxin-2-ylmethyl)-3-(4-methyl-piperazin-1-ylmethyl)-benzamide], the results for the IC50 in assay [2] and in assay [3] were 19.2 µM and 10.5 µM, respectively.

Turning to `c1ccc(COc2ccc3c(c2)O[C@H](CNCC2CCCNC2)CO3)cc1` (stereo partly drawn) [Example 58, ((R)-7-Benzyloxy-2,3-dihydro-benzo[1,4]dioxin-2-ylmethyl)-piperidin-3-ylmethyl-amine], the IC50 in assay [2] was determined as 14.7 µM; in assay [3] it was 13.8 µM. In the same order, the values of `c1ccc(COc2ccc3c(c2)O[C@H](CNCC2CCOCC2)CO3)cc1` [Example 33, ((R)-7-Benzyloxy-2,3-dihydro-benzo[1,4]dioxin-2-ylmethyl)-(tetrahydro-pyran-4-ylmethyl)-amine] are > 100 µM and 18 µM. In the same order, the values of `CN1CCN(c2cccc(CNC[C@@H]3COc4ccc(OCc5ccccc5)cc4O3)c2)CC1` [Example 53, ((R)-7-Benzyloxy-2,3-dihydro-benzo[1,4]dioxin-2-ylmethyl)-[3-(4-methyl-piperazin-1-yl)-benzyl]-amine] are 8 µM and 5 µM. `O=C1CC(CNC(=O)C2COc3ccc(OCc4ccccc4)cc3O2)CCN1` (centres unmarked) [Example 71, 7-Benzyloxy-2,3-dihydro-benzo[1,4]dioxine-2-carboxylic acid (2-oxo-piperidin-4-ylmethyl)-amide]: the “SPR Response Units” value in assay [1] is 7 Response Units.

For `CN1CCC(NC(=O)NC[C@@H]2COc3ccc(OCc4ccccc4)cc3O2)CC1` [Example 80, 1-(7-benzyloxy-2,3-dihydro-benzo[1,4]dioxin-2-ylmethyl)-3-(1-methyl-piperidin-4-yl)-urea], the “SPR Response Units” value in assay [1] is on record as 93 Response Units. On the same count and under the same terms, as for `NC(=O)CN1CCC(C(=O)NC[C@@H]2COc3ccc(OCc4ccccc4)cc3O2)CC1` [Example 14, 1-Carbamoylmethyl-piperidine-4-carboxylic acid ((R)-7-benzyloxy-2,3-dihydro-benzo[1,4]dioxin-2-ylmethyl)-amide], the figure is 24 Response Units. On the same count and under the same terms, under `CN1CCC(N(C)C(=O)NC[C@@H]2COc3ccc(OCc4ccccc4)cc3O2)CC1` [Example 81, 3-(7-Benzyloxy-2,3-dihydro-benzo[1,4]dioxin-2-ylmethyl)-1-methyl-1-(1-methyl-piperidin-4-yl)-urea] stands 75 Response Units. The same measure, in the same setting: as for `O=C(C1COc2ccc(OCc3ccccc3)cc2O1)N1CCN(Cc2ccncc2)CC1` (centres unmarked) [Example 63, (7-Benzyloxy-2,3-dihydro-benzo[1,4]dioxin-2-yl)-(4-pyridin-4-ylmethyl-piperazin-1-yl)-methanone], the figure is 79 Response Units. Take `O=C(NCc1ccncc1)C1COc2ccc(OCc3ccccc3)cc2O1` (centres unmarked) [Example 68, 7-Benzyloxy-2,3-dihydro-benzo[1,4]dioxine-2-carboxylic acid (pyridin-4-ylmethyl)-amide]: the “SPR Response Units” value in assay [1] is reported as 57 Response Units.
